Literature values in patent US20240335422A1, “COMPOSITION AND METHODS OF TREATMENT USING TRANSDERMAL SUPPLEMENTATION” (Xygenyx Inc., priority 2023, published 2024).

What was measured:
[1] = tested on: skin; conditions: single penetration enhancer
[2] = tested on: wide dynamic range neurons in the ventroposterolateral nucleus of the thalamus; conditions: in vivo
[3] = tested on: skin; conditions: topical, concentrations 0.5-5%
[4] = tested on: skin; conditions: topical, in combination with silymarin and tocopherols, test studies
[5] = not given; remark: listed apart in the source
[6] = compared to α-tocopherol taken as 1.0
[7] = even when dietary intake occurs in equal portions
[8] = in vivo

CC(C)[C@@H]1CC[C@@H](C)C[C@H]1O [Menthol]
increase of transdermal drug uptake (factor) [1]: ≥ 10

CCCCCc1cc(O)c2c(c1)OC(C)(C)C1CCC(C)=CC21 (stereo not drawn) [THC, Δ-9-tetrahydrocannabinol]
analgesic power relative to morphine [2]: ten times more powerful than morphine

C=CCCCCCCCCC(=O)N[C@@H](Cc1ccccc1)C(=O)O [UP, Undecylenoyl phenylalanine]
time of treatment to skin lightening effects [3]: ≥ 7 days

NCCC(=O)N[C@@H](Cc1cnc[nH]1)C(=O)O [carnosine, Carnosine]
reduction of age-related wrinkles [4]: ≤ 27%

CC12CCC(CC1)C(C)(C)O2 [eucalyptol, 1,8-epoxy-p-menthane]
increase of transdermal drug uptake (factor) [1]: more than 10

C/C(=C\CO)CCC[C@H](C)CCC[C@H](C)CCCC(C)C [phytol, Phytol]
solubility: nearly insoluble in water, but soluble in most organic solvents

Cc1c(C)c2c(c(C)c1O)CC[C@@](C)(CCC[C@H](C)CCC[C@H](C)CCCC(C)C)O2 [α-tocopherol]
reduction of risk of coronary disease ([5]; dietary supplementation, doses up to 400 IU/day): up to 34% | reduction of risk of developing neurodegenerative diseases (Alzheimer's Syndrome or dementia) ([5]; dietary supplementation, doses up to 400 IU/day, controlled trials): ≤ 24% | reduction in the development of age-related cataracts ([5]; in combination with 10-20 mg β-carotene and 400-500 mg vitamin C, doses around 400-500 IU): 23% | blood plasma concentration of F2-isoprostane ([5]; large doses of 1600-3200 IU/day): significantly lower

Cc1cc(O)c(C)c2c1O[C@](C)(CCC[C@H](C)CCC[C@H](C)CCCC(C)C)CC2 [β-tocopherol]
relative biological activity [6]: 0.5

Cc1c(O)cc2c(c1C)O[C@](C)(CCC[C@H](C)CCC[C@H](C)CCCC(C)C)CC2 [γ-tocopherol]
relative biological activity [6]: 0.1 | concentration in vivo relative to α-tocopherol [7]: roughly 10%

Cc1cc(O)cc2c1O[C@](C)(CCC[C@H](C)CCC[C@H](C)CCCC(C)C)CC2 [δ-tocopherol]
relative biological activity [6]: 0.03

HGH: hormone comprising a peptide chain synthesized in the pituitary gland
biological half-life [8]: 10-20 minutes
